Data taken from patent EP4733303A1, “MUSCARINIC M4 RECEPTOR AGONIST AND USE THEREOF” (Haisco Pharmaceutical Group Co., Ltd., priority 2023, dated 2024).

target: T1, M4 receptor (Homo sapiens, UniProt P08173); experiment: PAM agonistic activity of compound on M4 receptor (FLIPR Calcium 6 assay in M4-CHO cells); type: cell-based; conditions: with acetylcholine (Ach), final concentration 3 nM
T1 construct: expressed in transfected cells; host or cells: CHO (M4-CHO cells)
T1 sequence (P08173 1-479): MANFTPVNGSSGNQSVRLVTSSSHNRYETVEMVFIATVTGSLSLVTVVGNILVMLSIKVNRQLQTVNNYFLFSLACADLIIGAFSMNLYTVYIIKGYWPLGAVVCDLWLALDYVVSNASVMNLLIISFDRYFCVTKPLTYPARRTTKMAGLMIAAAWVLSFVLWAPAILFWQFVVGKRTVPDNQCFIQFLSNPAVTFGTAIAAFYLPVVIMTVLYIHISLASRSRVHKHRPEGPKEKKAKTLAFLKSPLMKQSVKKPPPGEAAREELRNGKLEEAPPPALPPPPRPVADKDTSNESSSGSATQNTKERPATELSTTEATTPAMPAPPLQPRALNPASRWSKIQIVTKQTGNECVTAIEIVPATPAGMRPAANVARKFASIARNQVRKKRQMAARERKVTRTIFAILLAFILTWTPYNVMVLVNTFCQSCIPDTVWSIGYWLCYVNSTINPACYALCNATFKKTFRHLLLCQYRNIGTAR
Description: • 1). Cell plating: M4-CHO cells were digested, collected, and resuspended. After cell counting, the cell suspension was seeded into a 384-well cell plate at a density of: 1.2 × 10^4 cells/25 µL/well. The cell plate was then cultured in a 37°C, 5% CO2 incubator for about 16-20 h. • 2). Day 2: Assay Buffer was prepared according to the instructions of the FLIPR Calcium 6 Assay Kit. Component A (20×) was thawed to room temperature and diluted with the Assay Buffer to prepare a loading buffer (1×), which was stored at room temperature until use. • 3). The culture medium was removed from the cell plate. 40 µL of the loading buffer (1×) was quickly added to each well. The cell plate was then centrifuged and incubated at 37°C in the dark for 120 min. • 4). Working solutions of the positive control compound and the test compounds were prepared. An acetylcholine (Ach) agonist compound solution was prepared (final concentration: 3 nM). The PAM compound and the Ach agonist solution were mixed at a 1 : 1 ratio, and the mixture was transferred into a 384-well compound source plate at 20 µL per well. • 5). The cell plate, the compound source plate, and the pipette tips were placed into the corresponding positions within the FLIPR instrument. 10 µL of the diluted compound from step 4 was added into each experimental well using the FLIPR Tetra. Data was collected at the wavelength of 515 nm-575 nm. • 6). The signal values were plotted against the compound concentrations. Nonlinear regression analysis was performed using GraphPad Prism software for curve fitting and EC50 calculation.
The experimental results are shown in Table 1, where A represents EC50 < […]; B represents 100 nM ≤ EC50 < 500 nM, and C represents 500 nM ≤ EC50. Table 1. Agonistic activity of compounds on M4 receptor

SMILES | EC50 [nM]
Cc1cc(C)c2c(n1)CN(C(=O)CC1CN(c3ccnc(-c4ncnn4C)c3)C1)C2 [Compound 97] | < 100
Cc1ccn(-c2cc(N3CC(CC(=O)N4Cc5nc(C6CCOCC6)cc(C)c5C4)C3)ccn2)n1 [Compound 98] | < 100
Cc1ccn(-c2cc(N3CC(CC(=O)N4Cc5c(C)cc(=O)n(C)c5C4)C3)ccn2)n1 [Compound 99] | < 100
Cc1cc(=O)n(C)c2c1CN(C(=O)CC1CN(c3ccnc(C(F)(F)F)c3)C1)C2 [Compound 100] | < 100
Cc1cc(=O)n(C)c2c1CN(C(=O)CC1CN(c3ccnc(OC4CC(F)(F)C4)c3)C1)C2 [Compound 101] | < 100
Cc1cc(C)c2c(n1)CN(C(=O)CC1CN(c3cnnc(-n4ccc(C)n4)c3)C1)C2 [Compound 102] | < 100
Cc1cc(C#N)c(F)c2c1CN(C(=O)CC1CN(c3ccnc(OC4CC(F)(F)C4)c3)C1)C2 [Compound 103] | < 100
Cc1nc(C#N)c2c(n1)CN(C(=O)CC1CN(c3ccnc(OC4CC(F)(F)C4)c3)C1)C2 [Compound 107] | < 100
Cc1cc(C)c2c(n1)CN(C(=O)CC1CN(c3ccnc(-n4cnnc4)c3)C1)C2 [Compound 108] | < 100
Cc1cc(-c2cnn(C)c2)nc2c1CN(C(=O)CC1CN(c3ccnc(C(F)(F)F)c3)C1)C2 [Compound 109] | < 100
Cc1cc(-c2ccn(C)n2)nc2c1CN(C(=O)CC1CN(c3ccnc(C(F)(F)F)c3)C1)C2 [Compound 112] | < 100
Cc1nc(C#N)nc2c1CN(C(=O)CC1CN(c3ccnc(OC4CC(F)(F)C4)c3)C1)C2 [Compound 115] | < 100
Cc1c2c(n(C)c(=O)c1Cl)CN(C(=O)CC1CN(c3ccnc(OC4CC(F)(F)C4)c3)C1)C2 [Compound 116] | < 100
Cc1cc(=O)n(C)c2c1CN(C(=O)CC1CN(c3ccnc(O[C@H]4CCOC4)c3)C1)C2 [Compound 117] | < 100
Cc1cc(=O)n(C)c2c1CN(C(=O)CC1CN(c3ccnc(O[C@@H]4CCOC4)c3)C1)C2 [Compound 118] | < 100
Cc1cc(=O)n(C)c2c1CN(C(=O)CC1CN(c3ccnc(-n4ccc(F)n4)c3)C1)C2 [Compound 119] | < 100
Cc1cc(C)c2c(n1)CN(C(=O)CC1CN(c3ccnc(C(=O)c4cnn(C)c4)c3)C1)C2 [Compound 120] | < 100
C=C1CC(Oc2cc(N3CC(CC(=O)N4Cc5nc(C)cc(C)c5C4)C3)ccn2)C1 [Compound 121] | < 100
Cc1ccn(-c2cc(N3CC(CC(=O)N4Cc5nc(-c6cnn(C)c6)nc(C)c5C4)C3)ccn2)n1 [Compound 123] | < 100
Cc1cc(C2CCOC2)nc2c1CN(C(=O)CC1CN(c3ccnc(C(F)(F)F)c3)C1)C2 (stereo not drawn) [Compound 125] | < 100

SMILES | EC50 [nM]
Cc1ncn(-c2cc(N3CC(CC(=O)N4Cc5c(C)cc(=O)n(C)c5C4)C3)ccn2)n1 [Compound 127] | < 100
Cc1ncn(-c2cc(N3CC(CC(=O)N4Cc5nc(-c6cnn(C)c6)nc(C)c5C4)C3)ccn2)n1 [Compound 130] | < 100
Cc1cc(=O)n(C)c2c1CN(C(=O)CC1CN(c3ccc4c(c3)CCC4=O)C1)C2 [Compound 131] | < 100
Cc1ccn(-c2cc(N3CC(CC(=O)N4Cc5c(C)cc(=O)n(C)c5C4)C3)cnn2)n1 [Compound 133] | < 100
Cc1cc(C)c2c(n1)CN(C(=O)CC1CN(c3ccnc(-n4ccc(C(F)F)n4)c3)C1)C2 [Compound 134] | < 100
COc1nc(C)c2c(n1)CN(C(=O)CC1CN(c3ccnc(OC4CC(F)(F)C4)c3)C1)C2 [Compound 137] | < 100
Cc1cc(=O)n(C)c2c1CN(C(=O)CC1CN(c3ccnc(OC4CC4)c3)C1)C2 [Compound 138] | < 100
Cc1cc(=O)n(C)c2c1CN(C(=O)OC1CN(c3ccnc(OC4CC(F)(F)C4)c3)C1)C2 [Compound 139] | < 100
Cn1c2c(c(F)cc1=O)CN(C(=O)CC1CN(c3ccnc(OC4CC(F)(F)C4)c3)C1)C2 [Compound 141] | < 100
Cc1nc(-c2cnn(C)c2)nc2c1CN(C(=O)CC1CN(c3ccnc(OC4CC(F)(F)C4)c3)C1)C2 [Compound 143] | < 100
Cc1nc(-c2ccnn2C)nc2c1CN(C(=O)CC1CN(c3ccnc(OC4CC(F)(F)C4)c3)C1)C2 [Compound 144] | < 100
Cc1ncn(-c2cc(N3CC(CC(=O)N4Cc5nc(-c6ccnn6C)nc(C)c5C4)C3)ccn2)n1 [Compound 146] | < 100
Cc1cc(-c2cnn(C)c2)nc2c1CN(C(=O)CC1CN(c3ccnc(OC4CC4)c3)C1)C2 [Compound 148] | < 100
Cc1cc(C)c2c(n1)CN(C(=O)CC1CN(c3cc(-n4ccc(F)n4)ncc3F)C1)C2 [Compound 149] | < 100
Cc1ncn(-c2cc(N3CC(CC(=O)N4Cc5nc(-c6cnn(C(F)F)c6)cc(C)c5C4)C3)ccn2)n1 [Compound 150] | < 100
Cc1cc(-c2ccnn2C)nc2c1CN(C(=O)CC1CN(c3ccnc(OC4CC(F)(F)C4)c3)C1)C2 [Compound 158] | < 100
Cc1cc(=O)n(C)c2c1CN(C(=O)CC1CN(c3ccnc(-n4ccc(C(F)(F)F)n4)c3)C1)C2 [Compound 160] | < 100
Cc1cc(-c2cnn(C(F)F)c2)nc2c1CN(C(=O)CC1CN(c3ccnc(C(F)(F)F)c3)C1)C2 [Compound 162] | < 100
Cc1ncn(-c2nc(C)c3c(n2)CN(C(=O)CC2CN(c4ccnc(OC5CC(F)(F)C5)c4)C2)C3)n1 [Compound 163] | < 100
C=C1CC(Oc2cc(N3CC(CC(=O)N4Cc5c(C)cc(=O)n(C)c5C4)C3)ccn2)C1 [Compound 165] | < 100

SMILES | EC50 [nM]
C=C1CC(Oc2cc(N3CC(CC(=O)N4Cc5nc(-c6cnn(C)c6)cc(C)c5C4)C3)ccn2)C1 [Compound 166] | < 100
Cc1nc(-c2cnn(C)c2)nc2c1CN(C(=O)CC1CN(c3ccnc(OC4CCOC4)c3)C1)C2 (stereo not drawn) [Compound 168] | < 100
Cc1cc(-c2cnn(C)c2)nc2c1CN(C(=O)CC1CN(c3ccnc(OC4CCOC4)c3)C1)C2 (stereo not drawn) [Compound 169] | < 100
Cc1cc(-c2cnn(C)c2)nc2c1CN(C(=O)CC1CN(c3ccnc(OC4CCOC4)c3)C1)C2 (stereo not drawn) [Compound 170] | < 100
Cc1cc(-c2cnn(C)c2)nc2c1CN(C(=O)CC1CN(c3ccnc(Oc4cnn(C)c4)c3)C1)C2 [Compound 171] | < 100
Cc1ncn(-c2cc(C)c3c(n2)CN(C(=O)CC2CN(c4ccnc(C(F)(F)F)c4)C2)C3)n1 [Compound 172] | < 100
Cc1nc(-c2cnn(C(F)F)c2)nc2c1CN(C(=O)CC1CN(c3ccnc(C(F)(F)F)c3)C1)C2 [Compound 173] | < 100
Cc1ncc(-c2nc(C)c3c(n2)CN(C(=O)CC2CN(c4ccnc(C(F)(F)F)c4)C2)C3)s1 [Compound 174] | < 100
Cc1c2c(n(C)c(=O)c1F)CN(C(=O)CC1CN(c3ccnc(OC4CC(F)(F)C4)c3)C1)C2 [Compound 175] | < 100
Cc1c2c(n(C)c(=O)c1F)CN(C(=O)CC1CN(c3ccnc(C(F)(F)F)c3)C1)C2 [Compound 176] | < 100
Cc1c2c(n(C(F)F)c(=O)c1F)CN(C(=O)CC1CN(c3ccnc(OC4CC(F)(F)C4)c3)C1)C2 [Compound 177] | < 100
Cc1c2c(n(C(F)F)c(=O)c1F)CN(C(=O)CC1CN(c3ccnc(C(F)(F)F)c3)C1)C2 [Compound 178] | < 100
Cc1ccn(-c2cc(N3CC(CC(=O)N4Cc5c(C)cc(=O)n(C(F)F)c5C4)C3)ccn2)n1 [Compound 179] | < 100
Cc1cc(=O)n(C(F)F)c2c1CN(C(=O)CC1CN(c3ccnc(OC4CCOC4)c3)C1)C2 (stereo not drawn) [Compound 180] | < 100
Cc1cc(=O)n(C(F)F)c2c1CN(C(=O)CC1CN(c3ccnc(Oc4cnn(C)c4)c3)C1)C2 [Compound 182] | < 100
C=C1CC(Oc2cc(N3CC(CC(=O)N4Cc5c(C)cc(=O)n(C(F)F)c5C4)C3)ccn2)C1 [Compound 184] | < 100
Cc1cc(S(C)(=O)=O)nc2c1CN(C(=O)CC1CN(c3ccnc(OC4CC(F)(F)C4)c3)C1)C2 [Compound 188] | < 100
Cc1cc(C)c2c(n1)CN(C(=O)CC1CN(c3ccnc(Cn4cc(C(F)(F)F)cn4)c3)C1)C2 [Compound 189] | < 100
Cc1c2c(n(C(F)F)c(=O)c1F)CN(C(=O)CC1CN(c3ccnc(OC4CC4)c3)C1)C2 [Compound 195] | < 100
Cc1c2c(n(C(F)F)c(=O)c1F)CN(C(=O)CC1CN(c3ccnc(OC4CCOC4)c3)C1)C2 (stereo not drawn) [Compound 198] | < 100
